In patent publication US9297017B2, “Methods and compositions for targeted protein degradation” (University of Washington, priority 2010, dated 2016):
“And” between values parts separate entries of the source, which are not always exact repeats. Identical values can stand only once. Like-named read-outs stand apart in the source and are kept apart here.

Assays:
COI1/JAZ1 complex = molecular target: T1, COI1/JAZ1 complex (Arabidopsis thaliana, UniProt O04197+Q9LMA8); assay: Saturation radioligand binding of 3H-coronatine to COI1/ASK1 in the presence of JAZ1
T1 construct: Full-length Arabidopsis thaliana COI1 and ASK1 were co-expressed; Full-length JAZ substrate proteins were expressed as 6×His-fusion proteins in Escherichia coli; GST (cleaved yes); 6xHis; made in house; host or cells: Hi5 insect cells (COI1/ASK1); Escherichia coli (JAZ1)
T1 sequence (O04197 1-592): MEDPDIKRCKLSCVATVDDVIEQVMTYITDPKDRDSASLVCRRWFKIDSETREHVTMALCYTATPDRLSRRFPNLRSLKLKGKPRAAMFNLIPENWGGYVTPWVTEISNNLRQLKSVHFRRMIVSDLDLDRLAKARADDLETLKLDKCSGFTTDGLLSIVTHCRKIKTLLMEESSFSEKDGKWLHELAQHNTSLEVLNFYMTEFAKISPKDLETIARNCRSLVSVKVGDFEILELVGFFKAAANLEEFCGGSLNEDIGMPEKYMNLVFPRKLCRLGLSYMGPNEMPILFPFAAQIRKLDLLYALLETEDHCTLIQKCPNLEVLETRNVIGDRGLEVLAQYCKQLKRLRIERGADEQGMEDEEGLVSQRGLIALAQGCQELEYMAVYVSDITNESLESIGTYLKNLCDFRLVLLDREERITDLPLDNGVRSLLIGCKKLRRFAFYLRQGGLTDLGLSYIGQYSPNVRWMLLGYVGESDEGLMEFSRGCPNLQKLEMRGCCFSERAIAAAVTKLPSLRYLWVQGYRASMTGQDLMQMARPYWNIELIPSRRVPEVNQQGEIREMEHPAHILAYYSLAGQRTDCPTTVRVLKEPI
T1 sequence (Q39255 1-160 partner): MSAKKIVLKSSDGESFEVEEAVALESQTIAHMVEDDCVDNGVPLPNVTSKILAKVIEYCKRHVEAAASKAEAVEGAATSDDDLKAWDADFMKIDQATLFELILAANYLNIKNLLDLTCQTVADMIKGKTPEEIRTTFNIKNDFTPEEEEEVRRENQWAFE
T1 sequence (Q9LMA8 1-253): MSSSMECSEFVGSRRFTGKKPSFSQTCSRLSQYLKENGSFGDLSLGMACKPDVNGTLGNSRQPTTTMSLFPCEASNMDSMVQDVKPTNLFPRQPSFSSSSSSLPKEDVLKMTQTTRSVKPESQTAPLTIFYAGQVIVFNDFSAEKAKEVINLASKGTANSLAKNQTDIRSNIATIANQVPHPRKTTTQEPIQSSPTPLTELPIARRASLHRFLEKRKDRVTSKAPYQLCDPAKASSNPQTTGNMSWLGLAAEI
Text: (§1) (^3H)-labeled coronatine was synthesized by Amersham. Full-length Arabidopsis thaliana COI1 and ASK1 were co-expressed as a glutathione S-transferase (GST) fusion protein and an untagged protein, respectively, in Hi5 suspension insect cells. The COI1/ASK1 complex was isolated from the soluble cell lysate by glutathione affinity chromatography. After on-column tag cleavage by tobacco etch virus protease, the complex was further purified by anion exchange and gel filtration chromatography and concentrated by ultrafiltration to 12-18 mg ml^−1. Full-length JAZ substrate proteins were expressed as 6×His-fusion proteins in Escherichia coli and purified on Ni-NTA resin with subsequent dialysis into 20 mM Tris-HCl, pH 8.0, 200 mM NaCl, and 10% glycerol.
Radioligand binding was assayed on purified proteins, with 2 mg COI1/ASK1 complex and JAZ proteins at a 1:3 molar ratio. […] Nonspecific binding was determined in the presence of […] coronatine. Competition binding experiments were conducted with serial dilutions of JA-Ile in the presence of 100 nM ^3H coronatine with nonspecific binding determined in the presence of […] coronatine. Total binding was determined in the presence of vehicle only. Two-point binding experiments were performed in the presence of 100 nM or 300 nM ^3H-coronatine with nonspecific binding determined in the presence of 300 mM coronatine. […]

COI1-JAZ6 complex = molecular target: T2, COI1-JAZ6 complex (Arabidopsis thaliana, UniProt O04197+Q9C9E3); assay: Saturation radioligand binding of 3H-coronatine to COI1/ASK1 in the presence of JAZ6
T2 construct: Full-length Arabidopsis thaliana COI1 and ASK1 were co-expressed; Full-length JAZ substrate proteins were expressed as 6×His-fusion proteins in Escherichia coli; GST (cleaved yes); 6xHis; made in house; host or cells: Hi5 insect cells (COI1/ASK1); Escherichia coli (JAZ6)
T2 sequence (O04197 1-592): T1 sequence (O04197 1-592)
T2 sequence (Q39255 1-160 partner): T1 sequence (Q39255 1-160 partner)
T2 sequence (Q9C9E3 1-269): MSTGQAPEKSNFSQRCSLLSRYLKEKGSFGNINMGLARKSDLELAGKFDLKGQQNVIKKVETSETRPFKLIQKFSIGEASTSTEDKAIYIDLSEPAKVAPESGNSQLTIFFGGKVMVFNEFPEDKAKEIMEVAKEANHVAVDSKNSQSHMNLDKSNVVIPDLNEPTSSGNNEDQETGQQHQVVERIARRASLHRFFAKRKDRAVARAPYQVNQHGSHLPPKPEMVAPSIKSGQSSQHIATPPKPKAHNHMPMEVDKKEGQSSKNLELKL
Text: as §1
Radioligand binding was assayed on purified proteins, with 2 mg COI1/ASK1 complex and JAZ proteins at a 1:3 molar ratio. Reactions were prepared in […] final volume and in a binding buffer containing 20 mM Tris-HCl 200 mM NaCl, and 10% glycerol. Saturation binding experiments were conducted with serial dilutions of 3H-coronatine in binding buffer. Nonspecific binding was determined in the presence of […] coronatine. Competition binding experiments were conducted with serial dilutions of JA-Ile in the presence of 100 nM ^3H coronatine with nonspecific binding determined in the presence of […] coronatine. Total binding was determined in the presence of vehicle only. Two-point binding experiments were performed in the presence of 100 nM or 300 nM ^3H-coronatine with nonspecific binding determined in the presence of […] coronatine. Following incubation with mixing at 4° C., all samples were collected with a cell harvester (Brandel, Gaithersburg, Md.) on polyethyleneimine (Sigma)-treated filters. […] Saturation binding experiments were analyzed by nonlinear regression, competition binding experiments by nonlinear regression with Ki calculation as described previously (Cheng 1973), and concentration-response data by sigmoidal dose-response curve fitting, all using GraphPad Prism version 4.00 for MacOSX.

COI1/JAZ1 co-receptor = molecular target: T3, COI1/JAZ1 co-receptor (Arabidopsis thaliana, UniProt O04197+Q9LMA8); assay: Ligand-binding based reconstitution assay (inositol phosphate rescue) with dialyzed COI1/ASK1 and JAZ1
T3 construct: Full-length Arabidopsis thaliana COI1 and ASK1 were co-expressed; Full-length JAZ substrate proteins were expressed as 6×His-fusion proteins in Escherichia coli; GST (cleaved yes); 6xHis; made in house; host or cells: Hi5 insect cells (COI1/ASK1); Escherichia coli (JAZ1)
T3 sequence (O04197 1-592): T1 sequence (O04197 1-592)
T3 sequence (Q39255 1-160 partner): T1 sequence (Q39255 1-160 partner)
T3 sequence (Q9LMA8 1-253): T1 sequence (Q9LMA8 1-253)
Method: Radioligand binding was assayed on purified proteins, with 2 mg COI1/ASK1 complex and JAZ proteins at a 1:3 molar ratio. Reactions were prepared in […] final volume and in a binding buffer containing 20 mM Tris-HCl 200 mM NaCl, and 10% glycerol. Saturation binding experiments were conducted with serial dilutions of 3H-coronatine in binding buffer. Nonspecific binding was determined in the presence of […] coronatine. Competition binding experiments were conducted with serial dilutions of JA-Ile in the presence of 100 nM ^3H coronatine with nonspecific binding determined in the presence of […] coronatine. Total binding was determined in the presence of vehicle only. Two-point binding experiments were performed in the presence of 100 nM or 300 nM ^3H-coronatine with nonspecific binding determined in the presence of […] coronatine. Following incubation with mixing at 4° C., all samples were collected with a cell harvester (Brandel, Gaithersburg, Md.) on polyethyleneimine (Sigma)-treated filters. Samples were incubated in liquid scintillation fluid for >1 hour before counting with a Packard Tri-Carb 2200 CA liquid scintillation analyzer (Packard Instrument Co.). Saturation binding experiments were analyzed by nonlinear regression, competition binding experiments by nonlinear regression with Ki calculation as described previously (Cheng 1973), and concentration-response data by sigmoidal dose-response curve fitting, all using GraphPad Prism version 4.00 for MacOSX.
To assess the functional role of Ins(1,2,4,5,6)P5 in the COI1/JAZ1 co-receptor, a protocol was developed for stripping the co-purified InsP5 from COI1 without denaturing the protein. Briefly, proteins were mixed with 10% glycerol and incubated in 2 M ammonium phosphate, 100 mM Bis-Tris propane, pH 7.0, 200 mM NaCl, and 10% glycerol at 4° C. for >24 hours with a minimum of 3× buffer changes at 100× sample volume. Samples were then transferred to 20 mM Tris-HCl, pH 8.0, 200 mM NaCl, and 10% glycerol at 4° C. for >24 hours with a minimum of three buffer changes at 100× sample volume. Inositol phosphate rescue experiments were conducted according to the radioligand binding assays described above in the presence of 300 nM ^3H-coronatine with nonspecific binding determined in the presence of 300 μM coronatine.
The resulting COI1/ASK1 complex was tested in a ligand-binding based reconstitution assay. […] From this reconstitution result, it was concluded that Ins(1,2,4,5,6)P5 binding is crucial for the jasmonate coreceptor to perceive the hormone with high sensitivity.

Q: For `CC[C@H]1C=C(C(=O)N[C@@]2(C(=O)O)C[C@@H]2CC)[C@H]2CCC(=O)[C@H]2C1` [coronatine], which “Binding affinity for COI1/JAZ1 complex” value (COI1/JAZ1 complex) is on record?
A: high affinity

Q: And the Kd (COI1/JAZ1 complex; COI1/JAZ1 complex, listed as 3H-coronatine)?
A: 68 nM and 48 nM

Q: What about the “Binding affinity for COI1/JAZ6 complex” value (COI1-JAZ6 complex) of the same molecule?
A: high affinity

Q: And the “Concentration at which binding reached the level of saturation” value (COI1-JAZ6 complex; COI1/JAZ6 complex)?
A: 300 nM

Q: And the Kd (COI1-JAZ6 complex; COI1/JAZ6 complex, listed as 3H-coronatine)?
A: 48 nM and 68 nM

Q: What about the Kd (COI1/JAZ1 co-receptor; 1 μM Ins(1,2,4,5,6)P5, read-out: Kd, saturation binding of 3H-coronatine to dialyzed COI1 in the presence of InsP5) of the same molecule?
A: 30 nM

Q: What about the Kd (COI1/JAZ1 co-receptor; 1 μM InsP6, read-out: Kd, saturation binding of 3H-coronatine to dialyzed COI1 in the presence of InsP6) of the same molecule?
A: 37 nM
